Test systems include HL-60; MOLT-4; A549; SF-539; RPMI-8226; OVCAR-5; UO-31; SK-MEL-28; IGROV-1; HOP-62; U-251; SNB-19; K562; HCC 2998; NCI-H460; CCRF-CEM; KM12; SW-620; SK-OV-3; SNB-75.
What all share (assay): DTP human tumour cell line panel, 48 h

SMILES strings stand for the structures.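 Exposure lasted 48 hours, with cells grown in 96-well plates and compounds tested at five concentrations. The concentration for 50% growth inhibition is given as GI50.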 Active and inactive are the calls of the source. Cut-off read from the data, not from the text of the source: active = GI50 up to about 1.1 µM and inactive = higher.

Results on one molecule are retold here after ChEMBL document CHEMBL1201862, “PubChem BioAssay data set” (2004).

For orientation: GI50 means the concentration that inhibits growth by half. For `COc1cc2c(ccc3c4cc(OC)c(OC)cc4c[n+](C)c23)cc1O` [FAGARONINE], the GI50 in the experiment on HL-60 was 48 µM (inactive); in the experiment with MOLT-4, 4.28 µM (inactive); in the experiment on A549, 19.9 µM (inactive); in the experiment on SF-539 it was 2.88 µM (inactive); in the experiment with RPMI-8226, > 65.3 µM (inactive); with OVCAR-5, 24 µM (inactive). Also, the GI50 was > 72.8 µM (inactive) in the experiment with UO-31; 52.7 µM (inactive) in the experiment on SK-MEL-28; 23.2 µM (inactive) with IGROV-1; 2.3 µM (inactive) in the experiment on HOP-62; 0.264 µM (active) in the experiment with U-251; 1.15 µM (inactive) with SNB-19. Besides, the GI50 was 4.26 µM (inactive) in the experiment with K562; 34.4 µM (inactive) in the experiment with HCC 2998; 14.7 µM (inactive) with NCI-H460; 2.02 µM (inactive) in the experiment with CCRF-CEM; > 75 µM (inactive) in the experiment with KM12; 12.7 µM (inactive) in the experiment with SW-620. Further, the GI50 with SK-OV-3 was 21.6 µM (inactive); in the experiment on SNB-75, 2.9 µM (inactive).
